≈ marks a conversion by molar mass, not a printed value.
Experiments:
Botrtyis cinerea (Bc) = assay: In vitro pathogen growth inhibition assay, Bc; format: cell-based; conditions: 48 h, ≥90% growth inhibition; 48 hours; vs 2% DMSO control; read-out: Compound Concentration (ppm) sufficient for ≥90% inhibition of Bc
Method in brief: (§1)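 Spores in 17% V8 liquid medium, or 1.5 mm Rs mycelial plugs in ¼ PDB, incubated with compound; final concentration checked by OD600 for precipitation. OD readings at 24 and 48 h, blank-subtracted, plus visual ratings; value is concentration giving ≥90% growth inhibition.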

[1] = tested on: Collectotrichum graminicola (Cg); assay: In vitro pathogen growth inhibition assay, Cg; format: cell-based; conditions: 48 h, ≥90% growth inhibition; 48 hours; vs 2% DMSO control; read-out: Compound Concentration (ppm) sufficient for ≥90% inhibition of Cg
Method in brief: as §1

Diplodia maydis (Dm) = assay: In vitro pathogen growth inhibition assay, Dm; format: cell-based; conditions: Stenocarpella maydis, 48 h, ≥90% growth inhibition; 48 hours; vs 2% DMSO control; read-out: Compound Concentration (ppm) sufficient for ≥90% inhibition of Dm
Method in brief: (§2)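 Spores of Dm, Fv and Pc were diluted in 17% V8 liquid medium; Rs used 1.5 mm mycelial plugs in ¼ PDB. Compounds from 2.5 mg/ml DMSO stocks were combined with inoculum, growth was read by OD600 at 24 and 48 h with blank subtraction, and the reported value is the concentration giving ≥90% inhibition.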

[2] = tested on: Fusarium moniliforme (Fm); assay: In vitro pathogen growth inhibition assay, Fm; format: cell-based; conditions: Fusarium verticillioides; ≥90% growth inhibition; 48 hours; vs 2% DMSO control; read-out: Compound Concentration (ppm) sufficient for ≥90% inhibition of Fm
Method in brief: as §1

[3] = tested on: Fusarium virguliforme (Fv); assay: In vitro pathogen growth inhibition assay, Fv; format: cell-based; conditions: ≥90% growth inhibition, 48 hours, vs 2% DMSO control, read-out: Compound Concentration (ppm) sufficient for ≥90% inhibition of Fv
Method in brief: as §2

[4] = tested on: Phytophthora capsici (Pc); assay: In vitro pathogen growth inhibition assay, Pc; format: cell-based; conditions: 48 h, ≥90% growth inhibition, 48 hours, vs 2% DMSO control, read-out: Compound Concentration (ppm) sufficient for ≥90% inhibition of Pc
Method in brief: as §2

Rhizoctonia solani (Rs) = assay: In vitro pathogen growth inhibition assay, Rs (mycelial plugs); format: cell-based; conditions: Rhizoctonia solani, 48 h, ≥90% growth inhibition; mycelial plugs; 48 hours; vs 2% DMSO control; read-out: Compound Concentration (ppm) sufficient for ≥90% inhibition of Rs
Method in brief: as §2

Septoria tritici (St) = assay: In vitro pathogen growth inhibition assay, St; format: cell-based; conditions: Zymoseptoria tritici, 48 h, ≥90% growth inhibition; 48 hours; vs 2% DMSO control; read-out: Compound Concentration (ppm) sufficient for ≥90% inhibition of St
Method in brief: as §1

[5] = tested on: Blumeria graminis f. sp. hordei; assay: Foliar protection test for barley powdery mildew control; format: in vivo; conditions: foliar spray on Hordeum vulgare cv. Perry, inoculated 24 hours after treatment, evaluated 7 days later
Method in brief: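 Six-day-old barley (cv. Perry) sprayed to wetness on both leaf sides; 24 h later inoculated by shaking spores from infected stock plants. Kept at 20 to 22° C, 70% relative humidity; mildew colonization assessed 7 days later.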

Sphaerotheca fuliginea = assay: Foliar protection for cucumber powdery mildew control; format: in vivo; conditions: foliar spray on Cucumis sativus cv. Straight Eight, inoculated 24 hours after treatment, evaluated 7 days later
Method in brief: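 Cucumber plants (cv. Straight Eight, 10 days old) sprayed to wetness on both leaf surfaces, then inoculated 24 h later by shaking sporulating stock plants over them. Held at 23–27 °C, 16 h light, 60% RH. Mildew colonization scored 7 days after inoculation, at compound concentrations of 10 ppm or lower.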

[6] = tested on: Mycosphaerella graminicola (synthetic Septoria tritici); assay: Foliar protection test for wheat septoria leaf blotch control; format: in vivo; conditions: foliar spray on Triticum aestivum cv. WinterHawk, inoculated 1 hour after treatment, evaluated 16 days later
Fusarium graminearum = format: in vivo; conditions: spray on flowering Triticum aestivum cv. Samson, inoculated 24 hours after treatment, evaluated 14 days later
Puccinia triticina = assay: Foliar protection test for wheat leaf rust control; format: in vivo; conditions: foliar application to wheat (Triticum aestivum cv. Winterhawk), evaluated 10 days later
Phakopsora pachyrhizi = assay: Foliar protection test for Asian soybean rust control; format: in vivo; conditions: foliar application to soybean (Glycine max AG4832), percent disease area evaluated 14 days later

SMILES	IC90 (Botrtyis cinerea (Bc)) [µg/mL]	IC90 [1] [µg/mL]	IC90 (Diplodia maydis (Dm)) [µg/mL]	IC90 [2] [µg/mL]	IC90 [3] [µg/mL]	IC90 [4] [µg/mL]	IC90 (Rhizoctonia solani (Rs)) [µg/mL]	IC90 (Septoria tritici (St)) [µg/mL]	Barley Powdery Mildew Control at a compound concentration of 10 ppm or lower [5]	Cucumber Powdery Mildew Control at a compound concentration of 10 ppm or lower (Sphaerotheca fuliginea)	Septoria Leaf Blotch Control at a compound concentration of 25 ppm or lower [6]	Wheat Fusarium Head Blight Control at a compound concentration of 25 ppm or lower (Fusarium graminearum)	Wheat Leaf Rust Control at a compound concentration of 10 ppm or lower (Puccinia triticina)	Asian Soybean Rust Control at a compound concentration of 25 ppm or lower (Phakopsora pachyrhizi)
COc1ccccc1[C@H](Cn1c(=O)n([C@@H](C)C(=O)N(C)C(C)C)c(=O)c2c(C)c(-n3nccn3)sc21)OCCC#N [Compound I-239, (S)-2-(1-((R)-2-(2-cyanoethoxy)-2-(2-methoxyphenyl)ethyl)-5-methyl-2,4-dioxo-6-(2H-1,2,3-triazol-2-yl)-1,4-dihydrothieno[2,3-d]pyrimidin-3 (2H)-yl)-N-isopropyl-N-methylpropanamide]	2 (≈ 3.45 µM)	2 (≈ 3.45 µM)	2 (≈ 3.45 µM)	0.08 (≈ 0.138 µM)	0.08 (≈ 0.138 µM)	≥ 10	0.08 (≈ 0.138 µM)	≥ 10	AA (≥85% control of barley powdery mildew)	AA (≥85% control of cucumber powdery mildew)	D (<25% control of wheat septoria leaf blotch)	C (from 25 to 49% control of wheat fusarium head blight)	AA (≥85% control of wheat leaf rust)	AA (≥85% control of Asian soybean rust)
CCNC(=O)[C@@H](C)n1c(=O)c2c(C)c(-n3nccn3)sc2n(C[C@H](OCCC#N)c2cc(F)ccc2OC)c1=O [Compound I-289, (R)-2-(1-((R)-2-(2-cyanoethoxy)-2-(5-fluoro-2-methoxyphenyl)ethyl)-5-methyl-2,4-dioxo-6-(2H-1,2,3-triazol-2-yl)-1,4-dihydrothieno[2,3-d]pyrimidin-3 (2H)-yl)-N-ethylpropanamide]	2 (≈ 3.51 µM)	0.08 (≈ 0.14 µM)	0.4 (≈ 0.702 µM)	0.08 (≈ 0.14 µM)	0.4 (≈ 0.702 µM)	≥ 10	0.08 (≈ 0.14 µM)	> 50	AA (≥85% control of barley powdery mildew)	AA (≥85% control of cucumber powdery mildew)	AA (≥85% control of wheat septoria leaf blotch)	C (from 25 to 49% control of wheat fusarium head blight)	AA (≥85% control of wheat leaf rust)	AA (≥85% control of Asian soybean rust)
COc1ccc(F)cc1[C@@](C)(Cn1c(=O)n(C(C)(C)C(=O)NC(C)C)c(=O)c2c(C)c(-n3nccn3)sc21)OCCC#N [Compound I-274, (S)-2-(1-(2-(2-cyanoethoxy)-2-(5-fluoro-2-methoxyphenyl)propyl)-5-methyl-2,4-dioxo-6-(2H-1,2,3-triazol-2-yl)-1,4-dihydrothieno[2,3-d]pyrimidin-3 (2H)-yl)-N-isopropyl-2-methylpropanamide]	0.4 (≈ 0.654 µM)	0.08 (≈ 0.131 µM)	0.4 (≈ 0.654 µM)	0.08 (≈ 0.131 µM)	0.4 (≈ 0.654 µM)	2 (≈ 3.27 µM)	0.08 (≈ 0.131 µM)	> 50	AA (≥85% control of barley powdery mildew)	AA (≥85% control of cucumber powdery mildew)	AA (≥85% control of wheat septoria leaf blotch)	C (from 25 to 49% control of wheat fusarium head blight)	AA (≥85% control of wheat leaf rust)	A (from 70% to 84% control of Asian soybean rust)
COc1ccccc1[C@H](Cn1c(=O)n(C(C)(C)C(=O)NC(C)C)c(=O)c2c(C)c(-n3cccn3)sc21)OCCC#N [Compound I-192, (R)-2-(1-(2-(2-cyanoethoxy)-2-(2-methoxyphenyl)ethyl)-5-methyl-2,4-dioxo-6-(1H-pyrazol-1-yl)-1,4-dihydrothieno[2,3-d]pyrimidin-3 (2H)-yl)-N-isopropyl-2-methylpropanamide]	0.4 (≈ 0.691 µM)	≥ 2	2 (≈ 3.46 µM)	0.08 (≈ 0.138 µM)	0.4 (≈ 0.691 µM)	50 (≈ 86.4 µM)	0.08 (≈ 0.138 µM)	≥ 50	AA (≥85% control of barley powdery mildew)	AA (≥85% control of cucumber powdery mildew)	A (from 70% to 84% control of wheat septoria leaf blotch)	D (<25% control of wheat fusarium head blight)	AA (≥85% control of wheat leaf rust)	AA (≥85% control of Asian soybean rust)
COc1ccc(F)cc1[C@H](Cn1c(=O)n(C(C)(C)C(=O)NC(C)C)c(=O)c2c(C)c(-n3nccn3)sc21)OCCS(C)(=O)=O [Compound I-287, (R)-2-(1-(2-(5-fluoro-2-methoxyphenyl)-2-(2-(methylsulfonyl)ethoxy)ethyl)-5-methyl-2,4-dioxo-6-(2H-1,2,3-triazol-2-yl)-1,4-dihydrothieno[2,3-d]pyrimidin-3 (2H)-yl)-N-isopropyl-2-methylpropanamide]	2 (≈ 3.07 µM)	0.4 (≈ 0.615 µM)	0.4 (≈ 0.615 µM)	0.4 (≈ 0.615 µM)	2 (≈ 3.07 µM)	10 (≈ 15.4 µM)	0.08 (≈ 0.123 µM)	≥ 50	AA (≥85% control of barley powdery mildew)	AA (≥85% control of cucumber powdery mildew)	AA (≥85% control of wheat septoria leaf blotch)	C (from 25 to 49% control of wheat fusarium head blight)	AA (≥85% control of wheat leaf rust)	AA (≥85% control of Asian soybean rust)
COc1ccc(F)cc1[C@H](Cn1c(=O)n(C(C)(C)C(=O)NC(C)C)c(=O)c2c(C)c(-n3nccn3)sc21)OCC#N [Compound I-210, (R)-2-(1-(2-(cyanomethoxy)-2-(5-fluoro-2-methoxyphenyl)ethyl)-5-methyl-2,4-dioxo-6-(2H-1,2,3-triazol-2-yl)-1,4-dihydrothieno[2,3-d]pyrimidin-3 (2H)-yl)-N-isopropyl-2-methylpropanamide]	0.4 (≈ 0.685 µM)	≥ 0.4	0.4 (≈ 0.685 µM)	2 (≈ 3.43 µM)	0.4 (≈ 0.685 µM)	> 50	0.08 (≈ 0.137 µM)	> 50	AA (≥85% control of barley powdery mildew)	AA (≥85% control of cucumber powdery mildew)	AA (≥85% control of wheat septoria leaf blotch)	C (from 25 to 49% control of wheat fusarium head blight)	A (from 70% to 84% control of wheat leaf rust)	AA (≥85% control of Asian soybean rust)

From patent publication US10941157B2, “Pesticidal compositions and uses thereof” (Gilead Apollo, LLC, priority 2015, dated 2021)
